Source: patent publication US10570155B2, “Imidazooxazole derivative having antitumor effect, and pharmaceutical composition including same” (KOREA INSTITUTE OF SCIENCE AND TECHNOLOGY, priority 2016, dated 2020)

Test system: A375P cell line
Assay: Inhibitory activity against proliferation of A375P melanoma cell line (MTT assay)
Format: cell-based
Details: Homo sapiens
Procedure: To examine whether the compounds (2II, 9II, 10II, and 12II to 15II) of the present disclosure have remarkable effects, as compared with imidazothiazole-based compounds previously disclosed by the present inventors (M. S. Abdel-Maksoud et al./European Journal of Medicinal Chemistry 95 (2015) 453-463), inhibitory activities thereof against proliferation of A375P cell line which is a melanoma cell line were compared by the following experiments.
A375P cell line purchased from ATCC was cultured in a DMEM medium [containing 10% FBS and 1% penicillin/streptomycin] under 5% CO2 at 37° C. The cultured A375P cell line was collected using 0.05% trypsin-0.02% EDTA, and inoculated at a cell density of 5×10^3 cells per well in a 96-well plate. To measure cell viability, MTT [3-(4,5-dimethylthiazol-2-yl)-2,5-diphenyltetrazolium bromide] assay (CellTiter 96 Assay, Promega) was performed as follows. MTT assay was performed in accordance with the guidelines of CellTiter 96® (Promega).

Compound | IC50 [nM]
O=S1(=O)NCCN1CCNc1nccc(-c2c(-c3cccc(O)c3)nc3sccn23)n1 | 630
CN1CCN(CCNc2nccc(-c3c(-c4cccc(O)c4)nc4sccn34)n2)S1(=O)=O | 60
O=S1(=O)N(CCNc2nccc(-c3c(-c4cccc(O)c4)nc4sccn34)n2)CCN1Cc1ccccc1 | 250
CC1(C)CN(CCNc2nccc(-c3c(-c4cccc(O)c4)nc4sccn34)n2)S(=O)(=O)N1 | 870
O=S1(=O)NCCCN1CCNc1nccc(-c2c(-c3cccc(O)c3)nc3sccn23)n1 | 720
CN1CCCN(CCNc2nccc(-c3c(-c4cccc(O)c4)nc4sccn34)n2)S1(=O)=O | 470
CC(C)(C)OC(=O)N1CCCN(CCNc2nccc(-c3c(-c4cccc(O)c4)nc4sccn34)n2)S1(=O)=O | 470
CCN1CCN(CCNc2nccc(-c3c(-c4cccc(O)c4)nc4occn34)n2)S1(=O)=O [drawing 151] | 190
O=S1(=O)NCCN1CCNc1nccc(-c2c(-c3ccc(F)cc3)nc3sccn23)n1 [reference compound] | 1900
CN1CCN(CCNc2nccc(-c3c(-c4ccc(F)cc4)nc4sccn34)n2)S1(=O)=O [reference compound] | 600
CCN1CCN(CCNc2nccc(-c3c(-c4ccc(F)cc4)nc4sccn34)n2)S1(=O)=O [reference compound] | 380
O=S1(=O)N(CCNc2nccc(-c3c(-c4ccc(F)cc4)nc4sccn34)n2)CCN1Cc1ccccc1 [reference compound] | > 10000
CC(C)(C)OC(=O)N1CCN(CCNc2nccc(-c3c(-c4ccc(F)cc4)nc4sccn34)n2)S1(=O)=O [reference compound] | > 10000
